# Data taken from patent US4725683A, “Fluorophenoxyphenoxypropionates and derivatives thereof” (The Dow Chemical Company, priority 1985, dated 1988).
# How the values were obtained:
# Assay type in all cases: in vivo
# Wheat = test: Postemergent activity; details: Triticum aestivum, post-emergence, 336 h, read-out: % Control
# Method in brief: (§1)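 Pots of plants about 10 cm tall sprayed to run-off at 125, 62.5, 31.25, 15.6, 7.8 and 3.9 ppm. Spray: active in acetone mixed with an equal volume of water containing 0.1% TWEEN 200. Growth scored two weeks later on a 0–100 scale (0 no effect, 100 complete kill).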
# Wild Oats = test: Postemergent activity; details: Avena fatua, post-emergence, 336 h
# Method in brief: as §1
# Broadleaf Signalgrass = test: Selective postemergence, track sprayer
# Experimental: (§2) Representative compositions of the present invention were evaluated for the postemergence control of species of plants listed in Table A. In these evaluations, pots of the plant species listed in Table A, grown to a height of about 10 cms, were used. Aqueous spray compositions, containing various amounts of 2-[4-(2-fluoro-4-trifluoromethylphenoxy)-phenoxy]propionic acid methy ester, i.e., 125 ppm, 62.5 ppm, 31.25 ppm, 15.6 ppm, 7.8 ppm and 3.9 ppm, respectively, were applied to separate pots. The spray compositions were made by mixing the active ingredient in acetone to 1/2 the final volume, i.e., twice the final concentration. An equal amount of water was added to the active ingredient/acetone mixture wherein the water contained 0.1 percent by weight of TWEEN® 200 surfactant. The application to the plants was made to the point of run-off and was carried out with conventional spraying equipment. Other pots were sprayed with similar compositions containing no toxicant to serve as controls. Thereafter, the pots were maintained under conditions conducive for plant growth. Two weeks after treatment, the pots were examined for plant growth and evaluated on a scale of 0 to 100 where 0 represents no effect and 100 represents complete kill. The results of the examination of the treated pots are set forth below in Table A.
# (§3) To further define the selective postemergence herbicidal characteristics of compounds of the present invention, chemicals were applied to additional species of grasses as listed in Table F. Chemicals evaluated were 2-[4-(4-bromo-2-fluorophenoxy)phenoxy]propionic acid methyl ester and its R isomer. Treatment conditions were similar to those described in Example A except that chemicals were delivered through a track sprayer set to deliver the appropriate dosages in 280.6 L/hectare of water containing 0.1% Tween-20 surfactant.
# Orchardgrass = test: Selective postemergence, track sprayer
# Experimental: as §2, §3
# Cheatgrass [1] = test: Selective postemergence, track sprayer
# Experimental: as §2, §3
# Sprangletop = test: Selective postemergence, track sprayer
# Experimental: as §2, §3
# Barley = test: Postemergent activity
# Method in brief: (§4)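 Spray solutions combine acetone-dissolved active, prepared at twice its final concentration, with an equal portion of 0.1 wt% TWEEN 200 in water. Pot-grown seedlings near 10 cm tall receive this to run-off, then stay under favourable growth conditions.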
# Blackgrass = test: Postemergent activity
# Method in brief: as §4
# Cheatgrass [2] = test: Postemergent activity
# Method in brief: as §4
# Yellow Foxtail = test: Postemergent activity
# Method in brief: as §4
# Green Foxtail = test: Postemergent activity
# Method in brief: as §4
structure (smiles),measurement,setting,value
"COC(=O)[C@@H](C)Oc1ccc(Oc2ccc(Br)cc2F)cc1 [4-Bromo-(R-Enantiomer), R enantiomer of 2-[4-(4-bromo-2-fluorophenoxy)phenoxy]propionic acid methyl ester]",plant injury at 1.9 ppm,Wheat; 1.9 ppm,0%
same,plant injury at 3.9 ppm,Wheat; 3.9 ppm,0%
same,plant injury at 7.8 ppm,Wheat; 7.8 ppm,0%
same,plant injury at 15.6 ppm,Wheat; 15.6 ppm,0%
same,plant injury at 31.25 ppm,Wheat; 31.25 ppm,0%
same,plant injury at 62.5 ppm,Wheat; 62.5 ppm,0%
same,plant injury at 125 ppm,Wheat; 125 ppm,70%
same,plant injury at 250 ppm,Wheat; 250 ppm,100%
same,pest or weed control at 1.9 ppm,Wild Oats; 1.9 ppm,60%
same,pest or weed control at 3.9 ppm,Wild Oats; 3.9 ppm,80%
same,pest or weed control at 7.8 ppm,"Wild Oats; 7.8 ppm, read-out: % Control",80%
same,pest or weed control at 15.6 ppm,"Wild Oats; 15.6 ppm, read-out: % Control",90%
same,pest or weed control at 31.25 ppm,"Wild Oats; 31.25 ppm, read-out: % Control",90%
same,pest or weed control at 62.5 ppm,"Wild Oats; 62.5 ppm, read-out: % Control",100%
same,pest or weed control at 125 ppm,"Wild Oats; 125 ppm, read-out: % Control",100%
same,pest or weed control at 250 ppm,"Wild Oats; 250 ppm, read-out: % Control",100%
same,Percent Control,Broadleaf Signalgrass; 0.00055 kgs/hectare,50%
same,Percent Control,Broadleaf Signalgrass; 0.0011 kgs/hectare,50%
same,Percent Control,Broadleaf Signalgrass; 0.0023 kgs/hectare,50%
same,Percent Control,Broadleaf Signalgrass; 0.0045 kgs/hectare,90%
same,Percent Control,Broadleaf Signalgrass; 0.009 kgs/hectare,95%
same,Percent Control,Broadleaf Signalgrass; 0.018 kgs/hectare,100%
same,Percent Control,Broadleaf Signalgrass; 0.035 kgs/hectare,100%
same,Percent Control,Broadleaf Signalgrass; 0.07 kgs/hectare,100%
same,Percent Control,Broadleaf Signalgrass; 0.14 kgs/hectare,100%
same,Percent Control,Broadleaf Signalgrass; 0.28 kgs/hectare,100%
same,Percent Control,Orchardgrass; 0.00055 kgs/hectare,0%
same,Percent Control,Orchardgrass; 0.0011 kgs/hectare,0%
same,Percent Control,Orchardgrass; 0.0023 kgs/hectare,0%
same,Percent Control,Orchardgrass; 0.0045 kgs/hectare,0%
same,Percent Control,Orchardgrass; 0.009 kgs/hectare,0%
same,Percent Control,Orchardgrass; 0.018 kgs/hectare,0%
same,Percent Control,Orchardgrass; 0.035 kgs/hectare,0%
same,Percent Control,Orchardgrass; 0.07 kgs/hectare,0%
same,Percent Control,Orchardgrass; 0.14 kgs/hectare,0%
same,Percent Control,Orchardgrass; 0.28 kgs/hectare,50%
same,Percent Control,Cheatgrass [1]; 0.00055 kgs/hectare,0%
same,Percent Control,Cheatgrass [1]; 0.0011 kgs/hectare,0%
same,Percent Control,Cheatgrass [1]; 0.0023 kgs/hectare,0%
same,Percent Control,Cheatgrass [1]; 0.0045 kgs/hectare,0%
same,Percent Control,Cheatgrass [1]; 0.009 kgs/hectare,0%
same,Percent Control,Cheatgrass [1]; 0.018 kgs/hectare,0%
same,Percent Control,Cheatgrass [1]; 0.035 kgs/hectare,0%
same,Percent Control,Cheatgrass [1]; 0.07 kgs/hectare,0%
same,Percent Control,Cheatgrass [1]; 0.14 kgs/hectare,0%
same,Percent Control,Cheatgrass [1]; 0.28 kgs/hectare,0%
same,Percent Control,Sprangletop; 0.00055 kgs/hectare,0%
same,Percent Control,Sprangletop; 0.0011 kgs/hectare,20%
same,Percent Control,Sprangletop; 0.0023 kgs/hectare,100%
same,Percent Control,Sprangletop; 0.0045 kgs/hectare,100%
same,Percent Control,Sprangletop; 0.009 kgs/hectare,100%
same,Percent Control,Sprangletop; 0.018 kgs/hectare,100%
same,Percent Control,Sprangletop; 0.035 kgs/hectare,100%
same,Percent Control,Sprangletop; 0.07 kgs/hectare,100%
same,Percent Control,Sprangletop; 0.14 kgs/hectare,100%
same,Percent Control,Sprangletop; 0.28 kgs/hectare,100%
same,% Control,Barley; 1.9 ppm,0%
same,% Control,Barley; 3.9 ppm,0%
same,% Control,Barley; 7.8 ppm,0%
same,% Control,Barley; 15.6 ppm,0%
same,% Control,Barley; 31.25 ppm,0%
same,% Control,Barley; 62.5 ppm,95%
same,% Control,Barley; 125 ppm,90%
same,% Control,Barley; 250 ppm,100%
same,% Control,Blackgrass; 0.1 ppm,0%
same,% Control,Blackgrass; 0.2 ppm,0%
same,% Control,Blackgrass; 0.4 ppm,50%
same,% Control,Blackgrass; 0.8 ppm,60%
same,% Control,Blackgrass; 1.5 ppm,90%
same,% Control,Blackgrass; 3.1 ppm,90%
same,% Control,Blackgrass; 6.3 ppm,100%
same,% Control,Blackgrass; 12.5 ppm,100%
same,% Control,Cheatgrass [2]; 0.1 ppm,0%
same,% Control,Cheatgrass [2]; 0.2 ppm,0%
same,% Control,Cheatgrass [2]; 0.4 ppm,0%
same,% Control,Cheatgrass [2]; 0.8 ppm,0%
same,% Control,Cheatgrass [2]; 1.5 ppm,0%
same,% Control,Cheatgrass [2]; 3.1 ppm,0%
same,% Control,Cheatgrass [2]; 6.3 ppm,0%
same,% Control,Cheatgrass [2]; 12.5 ppm,0%
same,% Control,Yellow Foxtail; 0.1 ppm,0%
same,% Control,Yellow Foxtail; 0.2 ppm,0%
same,% Control,Yellow Foxtail; 0.4 ppm,0%
same,% Control,Yellow Foxtail; 0.8 ppm,20%
same,% Control,Yellow Foxtail; 1.5 ppm,60%
same,% Control,Yellow Foxtail; 3.1 ppm,100%
same,% Control,Yellow Foxtail; 6.3 ppm,100%
same,% Control,Yellow Foxtail; 12.5 ppm,100%
same,% Control,Green Foxtail; 0.1 ppm,0%
same,% Control,Green Foxtail; 0.2 ppm,50%
same,% Control,Green Foxtail; 0.4 ppm,100%
same,% Control,Green Foxtail; 0.8 ppm,100%
same,% Control,Green Foxtail; 1.5 ppm,100%
same,% Control,Green Foxtail; 3.1 ppm,100%
same,% Control,Green Foxtail; 6.3 ppm,100%
same,% Control,Green Foxtail; 12.5 ppm,100%
